# Assay results from PubChem BioAssay AID256 (DTP/NCI, 2004).
# Values joined by “and” are separate entries in the source; they are usually repeats but may differ in a detail not shown here. Equal entries are not always repeated. Toxic doses and inconclusive results are not listed.
# System: CD2F1 mice, L1210 leukemia ip, survival T/C
# Assay: NCI In Vivo Anticancer Drug Screen. Data for tumor model L1210 Leukemia (intraperitoneal) in CD2F1 (CDF1) mice
# Details: higher = longer survival
# In short: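 Each value reflects a quotient of treated over vehicle control outcomes in mice with a transplanted tumor.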
# [1] = endpoint: mean survival time, dose: 100.0 mg/kg/injection, schedule: Q01DX009 (ip), vehicle: saline with Tween-80
# [2] = endpoint: mean survival time, dose: 100.0 mg/kg/injection, schedule: Q04DX003 (ip), vehicle: saline with Tween-80
# [3] = endpoint: mean survival time, dose: 200.0 mg/kg/injection, schedule: Q01DX009 (ip), vehicle: saline with Tween-80
# [4] = endpoint: mean survival time, dose: 200.0 mg/kg/injection, schedule: Q04DX003 (ip), vehicle: saline with Tween-80
# [5] = endpoint: mean survival time, dose: 400.0 mg/kg/injection, schedule: Q01DX009 (ip), vehicle: saline with Tween-80
# [6] = endpoint: mean survival time, dose: 400.0 mg/kg/injection, schedule: Q04DX003 (ip), vehicle: saline with Tween-80
# [7] = endpoint: mean survival time, dose: 25.0 mg/kg/injection, schedule: Q04DX003 (ip), vehicle: saline with Tween-80
# [8] = endpoint: mean survival time, dose: 50.0 mg/kg/injection, schedule: Q04DX003 (ip), vehicle: saline with Tween-80
# [9] = endpoint: mean survival time, dose: 100.0 mg/kg/injection, schedule: Q04DX003 (ip), vehicle: Klucel (hydroxypropylcellulose) (HPC)
# [10] = endpoint: mean survival time, dose: 200.0 mg/kg/injection, schedule: Q04DX003 (ip), vehicle: Klucel (hydroxypropylcellulose) (HPC)
# [11] = endpoint: mean survival time, dose: 400.0 mg/kg/injection, schedule: Q04DX003 (ip), vehicle: Klucel (hydroxypropylcellulose) (HPC)
# [12] = endpoint: mean survival time, dose: 25.0 mg/kg/injection, schedule: Q01DX009 (ip), vehicle: Klucel (hydroxypropylcellulose) (HPC)
# [13] = endpoint: mean survival time, dose: 25.0 mg/kg/injection, schedule: Q01DX009 (ip), vehicle: saline with Tween-80
# [14] = endpoint: mean survival time, dose: 50.0 mg/kg/injection, schedule: Q01DX009 (ip), vehicle: saline with Tween-80
# [15] = endpoint: mean survival time, dose: 100.0 mg/kg/injection, schedule: Q04DX003 (ip), vehicle: saline
# [16] = endpoint: mean survival time, dose: 25.0 mg/kg/injection, schedule: Q04DX003 (ip), vehicle: saline
# [17] = endpoint: mean survival time, dose: 50.0 mg/kg/injection, schedule: Q04DX003 (ip), vehicle: saline
# [18] = endpoint: mean survival time, dose: 100.0 mg/kg/injection, schedule: Q04DX003 (ip), vehicle: acetone
# [19] = endpoint: mean survival time, dose: 200.0 mg/kg/injection, schedule: Q04DX003 (ip), vehicle: acetone
# [20] = endpoint: mean survival time, dose: 100.0 mg/kg/injection, schedule: Q01DX001 (ip), vehicle: saline with Tween-80
# [21] = endpoint: mean survival time, dose: 200.0 mg/kg/injection, schedule: Q01DX001 (ip), vehicle: saline with Tween-80
smiles,measurement,setting,value
CC(=O)O[C@H]1CC[C@H]2[C@@H]3CCC4=C(Cl)C(=O)CC[C@]4(C)[C@H]3CC[C@]12C,T/C,[1],96 % of control
same,T/C,[2],97 % of control
same,T/C,[3],94 % of control
same,T/C,[4],96 % of control
same,T/C,[5],94 % of control
same,T/C,[6],103 % of control
O=C(O)c1cc[c]([Hg][S]c2ncnc3nc[nH]c23)cc1,T/C,"endpoint: mean survival time, dose: 5.0 mg/kg/injection, schedule: Q01DX001 (ip), vehicle: saline",98 % of control
same,T/C,"endpoint: mean survival time, dose: 10.0 mg/kg/injection, schedule: Q01DX001 (ip), vehicle: saline",98 % of control
same,T/C,"endpoint: mean survival time, dose: 20.0 mg/kg/injection, schedule: Q01DX001 (ip), vehicle: saline",101 % of control
same,T/C,[7],98 % of control
same,T/C,"endpoint: mean survival time, dose: 33.0 mg/kg/injection, schedule: Q04DX003 (ip), vehicle: saline sonified",119 % of control
same,T/C,"endpoint: mean survival time, dose: 37.5 mg/kg/injection, schedule: Q01DX009 (ip), vehicle: saline sonified",172 % of control
same,T/C,"endpoint: mean survival time, dose: 40.0 mg/kg/injection, schedule: Q01DX001 (ip), vehicle: saline",98 % of control
same,T/C,"endpoint: mean survival time, dose: 50.0 mg/kg/injection, schedule: Q04DX003 (ip), vehicle: saline sonified",119 % of control
same,T/C,[8],104 % of control
same,T/C,"endpoint: mean survival time, dose: 80.0 mg/kg/injection, schedule: Q01DX001 (ip), vehicle: saline",104 % of control
same,T/C,"endpoint: mean survival time, dose: 100.0 mg/kg/injection, schedule: Q01DX009 (ip), vehicle: saline sonified",120 % of control
same,T/C,[2],121 % of control and 101 % of control
COC1OC(COC(c2ccccc2)(c2ccccc2)c2ccccc2)C(OC(C)=O)C1OC(C)=O (centres undefined),T/C,[9],109 % of control
same,T/C,[10],89 % of control
same,T/C,[11],89 % of control
CCOC(=O)CCC(NC(=O)c1cc(Cl)c(N(CC)Cc2cnc3nc(N)nc(N)c3n2)c(Cl)c1)C(=O)OCC (centres undefined),T/C,[12],170 % of control
O=C(O)CN(CCO)CCN(CC(=O)O)CC(=O)O,T/C,[13],102 % of control
same,T/C,[14],108 % of control
same,T/C,[1],105 % of control
same,T/C,[15],104 % of control
OCC1OC(n2c(C(F)(F)F)nc3cc4ccccc4cc32)C(O)C1O (centres undefined),T/C,"endpoint: median survival time, dose: 22.5 mg/kg/injection, schedule: Q01DX005 (ip), vehicle: saline with Tween-80",103 % of control
same,T/C,"endpoint: median survival time, dose: 45.0 mg/kg/injection, schedule: Q01DX005 (ip), vehicle: saline with Tween-80",103 % of control
same,T/C,"endpoint: median survival time, dose: 90.0 mg/kg/injection, schedule: Q01DX005 (ip), vehicle: saline with Tween-80",93 % of control
same,T/C,"endpoint: median survival time, dose: 180.0 mg/kg/injection, schedule: Q01DX005 (ip), vehicle: saline with Tween-80",98 % of control
CC(C)NC(=O)CCCCn1c(=O)c2ccccc2c(=O)n1C,T/C,[16],96 % of control
same,T/C,[17],96 % of control
same,T/C,[15],98 % of control
same,T/C,"endpoint: mean survival time, dose: 200.0 mg/kg/injection, schedule: Q04DX003 (ip), vehicle: saline",113 % of control
same,T/C,"endpoint: mean survival time, dose: 400.0 mg/kg/injection, schedule: Q04DX003 (ip), vehicle: saline",104 % of control
CC1C(N2CCCCC2)CS1(=O)=O (centres undefined),T/C,"endpoint: mean survival time, dose: 25.0 mg/kg/injection, schedule: Q04DX002 (ip), vehicle: saline",104 % of control
same,T/C,"endpoint: mean survival time, dose: 50.0 mg/kg/injection, schedule: Q04DX002 (ip), vehicle: saline",101 % of control
same,T/C,"endpoint: mean survival time, dose: 100.0 mg/kg/injection, schedule: Q04DX002 (ip), vehicle: saline",108 % of control
CNC(C1CCCCC1)C(C)OC(=O)c1ccc(N)cc1 (centres undefined),T/C,"endpoint: mean survival time, dose: 75.0 mg/kg/injection, schedule: Q01DX001 (ip), vehicle: saline",100 % of control
O=C(Nc1cccc([N+](=O)[O-])c1)c1cc2ccccc2cc1O,T/C,"endpoint: mean survival time, dose: 100.0 mg/kg/injection, schedule: Q01DX009 (ip), vehicle: saline",101 % of control
same,T/C,[2],95 % of control
same,T/C,"endpoint: mean survival time, dose: 200.0 mg/kg/injection, schedule: Q01DX009 (ip), vehicle: saline",97 % of control
same,T/C,[4],95 % of control
same,T/C,"endpoint: mean survival time, dose: 400.0 mg/kg/injection, schedule: Q01DX009 (ip), vehicle: saline",98 % of control
same,T/C,[6],87 % of control
Cc1cc(C)c(C(=O)C(=S)N2CCOCC2)c(C)c1,T/C,[18],98 % of control
same,T/C,[19],104 % of control
same,T/C,"endpoint: mean survival time, dose: 400.0 mg/kg/injection, schedule: Q04DX003 (ip), vehicle: acetone",93 % of control
Cc1ccc(N)c(Br)c1,T/C,[16],111 % of control
same,T/C,[17],100 % of control
same,T/C,[2],92 % of control
same,T/C,[15],98 % of control and 100 % of control
same,T/C,[4],98 % of control
CNC/C(C)=C/Br,T/C,"endpoint: mean survival time, dose: 50.0 mg/kg/injection, schedule: Q01DX009 (ip), vehicle: acetone",101 % of control
same,T/C,[18],101 % of control
same,T/C,[19],97 % of control
O=[N+]([O-])c1ccc2c(ccn2C2OCC(O)C(O)C2O)c1 (centres undefined),T/C,"endpoint: mean survival time, dose: 450.0 mg/kg/injection, schedule: Q01DX009 (ip), vehicle: saline with Tween-80",101 % of control
C(=N/c1ccccn1)/c1ccc(/C=N\c2ccccn2)cc1,T/C,[9],94 % of control
same,T/C,[10],94 % of control
same,T/C,[11],102 % of control
O=c1cc(NCCCCc2ccccc2)[nH]c(=O)[nH]1,T/C,[20],94 % of control
same,T/C,[21],91 % of control
same,T/C,"endpoint: mean survival time, dose: 400.0 mg/kg/injection, schedule: Q01DX001 (ip), vehicle: saline with Tween-80",91 % of control
Nc1c(Br)cc2c(c1Br)Cc1cc(Cl)ccc1-2,T/C,[13],107 % of control
same,T/C,[7],111 % of control
same,T/C,[14],103 % of control
same,T/C,[8],103 % of control
same,T/C,[1],102 % of control
same,T/C,[2],105 % of control
same,T/C,[4],100 % of control
same,T/C,[6],86 % of control
O=C(O)c1cc2ccccc2o1,T/C,[20],94 % of control
same,T/C,[2],95 % of control
same,T/C,[21],98 % of control
same,T/C,[4],94 % of control
N=c1c2ncn(C3CCCC3)c2ncn1OCc1ccccc1,T/C,"endpoint: mean survival time, dose: 100.0 mg/kg/injection, schedule: Q01DX001 (ip), vehicle: other",98 % of control
O=[As](O)(O)CC(Br)CBr (centres undefined),T/C,[1],100 % of control
same,T/C,[3],94 % of control
COc1cc2ccc3cnccc3c2cc1OC,T/C,"endpoint: mean survival time, dose: 12.5 mg/kg/injection, schedule: Q01DX009 (ip), vehicle: Klucel (hydroxypropylcellulose) (HPC)",100 % of control
same,T/C,[12],92 % of control
same,T/C,"endpoint: mean survival time, dose: 50.0 mg/kg/injection, schedule: Q01DX009 (ip), vehicle: Klucel (hydroxypropylcellulose) (HPC)",94 % of control
same,T/C,"endpoint: mean survival time, dose: 100.0 mg/kg/injection, schedule: Q01DX009 (ip), vehicle: Klucel (hydroxypropylcellulose) (HPC)",94 % of control
same,T/C,"endpoint: mean survival time, dose: 200.0 mg/kg/injection, schedule: Q01DX009 (ip), vehicle: Klucel (hydroxypropylcellulose) (HPC)",100 % of control
CCc1ccccc1OS(=O)(=O)c1cccc([N+](=O)[O-])c1,T/C,[1],96 % of control
same,T/C,[2],99 % of control
same,T/C,[3],98 % of control
same,T/C,[4],100 % of control
same,T/C,[5],98 % of control
same,T/C,[6],99 % of control
C1=CSC(=C2SC=CS2)S1,T/C,[2],95 % of control
same,T/C,[4],102 % of control
CS/C([S-])=N/N=C\c1ccccn1.CS/C([S-])=N/N=C\c1ccccn1.[Fe+2],T/C,[2],103 % of control
same,T/C,[4],91 % of control
same,T/C,[6],91 % of control
COc1ccc(C(OCC2OC(n3ccc(NC(=O)c4ccccc4)nc3=O)C(O)C2O)(c2ccccc2)c2ccccc2)cc1 (centres undefined),T/C,"endpoint: median survival time, dose: 12.5 mg/kg/injection, schedule: Q01DX005 (ip), vehicle: saline with Tween-80",100 % of control
same,T/C,"endpoint: median survival time, dose: 25.0 mg/kg/injection, schedule: Q01DX005 (ip), vehicle: saline with Tween-80",104 % of control
same,T/C,"endpoint: median survival time, dose: 50.0 mg/kg/injection, schedule: Q01DX005 (ip), vehicle: saline with Tween-80",104 % of control
same,T/C,"endpoint: median survival time, dose: 100.0 mg/kg/injection, schedule: Q01DX005 (ip), vehicle: saline with Tween-80",98 % of control
same,T/C,"endpoint: median survival time, dose: 200.0 mg/kg/injection, schedule: Q01DX005 (ip), vehicle: saline with Tween-80",95 % of control
NC(=S)N/N=C\c1nccc2c(N)cccc12,T/C,"endpoint: mean survival time, dose: 12.5 mg/kg/injection, schedule: Q01DX009 (ip), vehicle: saline with Tween-80",124 % of control
same,T/C,[13],124 % of control
same,T/C,[14],161 % of control
same,T/C,"endpoint: mean survival time, dose: 75.0 mg/kg/injection, schedule: Q01DX009 (ip), vehicle: saline with Tween-80",121 % of control and 124 % of control
CN1CCc2cc3c(cc2C(=O)Cc2ccc4c(c2C1)OCO4)OCO3,T/C,[13],98 % of control
same,T/C,[14],101 % of control
same,T/C,[1],103 % of control
COc1cc(OC)c(NC(=O)Nc2ccc(N(C)C(C)=O)cc2)cc1Cl,T/C,[14],88 % of control
same,T/C,[1],88 % of control
same,T/C,[3],88 % of control
